Where a name gives a salt, the structure may show the parent alone.
Experiments:
Hsp70 promoter = assay: Hsp70 promoter-YFP reporter in SHSY5Y cells, flow cytometry; assay type: cell-based, human
Method: (§1) The Hsp co-inducing effect of the compounds on stress response was tested on B16 mouse melanoma and SHSY5Y human neuroblastoma cell lines stably transfected with Hsp promoter probing plasmids. This kind of promoter probing, using the promoter region of a given gene conjugated with fluorescent protein is used as a best and fastest test system for finding drugs which modulate the activity of the gene followed by the given promoter (Wyshocka et al., Mol. Cel. Biochem. 215:153-156, 2000).
(§2) Reporter plasmids, containing the Hsp70 and/or Hsp25 promoter conjugated to either YFP or GFP (yellow or green fluorescent protein), were stably transfected into the cells and the expression of YFP or GFP was followed by flow cytometry. Cells were either kept at 37° C. or exposed to heat shock at 42° C. for 1 hour followed by a 16 hour recovery period at 37° C. in the presence or absence of different concentrations of the test compound. After recovery the expression of YFP or GFP which is in straight correlation with the promoter activity of Hsp70 or Hsp27 genes was followed by measuring the fluorescence intensity of the cells by flow cytometry. Fluorescence intensity is in straight correlation with the amount of fluorescent protein (GFP or YFP) produced under the control of hsp promoter. The mean fluorescence intensity of YFP or GFP produced is shown as “Hsp promoter activity”.
The fluorescence intensity of YFP produced as a result of Hsp70 promoter activity was measured by flow cytometry.
(§3) Cells were homogenously distributed on 6-well plates in 1×10^5 cells/well density. B16-pHsp25-GFP and B16-pHsp70-YFP melanoma cells were grown in RPMI-1640 medium supplemented with 10% Fetal bovine serum (FBS), penicillin (200 units/ml), streptomycin (200 μg/ml) and 2 mM L-Glutamine. […] The changes in cells' fluorescence were detected using BD FACSCalibur flow cytometer.

Hsp25 promoter = assay: Hsp25 promoter-GFP reporter in SHSY5Y cells, flow cytometry; assay type: cell-based, human; conditions: FIG. 2
Method: as §1, §2
The fluorescence intensity of GFP and YFP […].
Selectivity of the Hsp25 co-inducing activity of compound of Ex. 11 is shown on FIG. 3. […] The fluorescence intensity of GFP produced as a result of Hsp25 promoter activity was measured by flow cytometry.
as §3

[1] = system: APP mutant transgenic mice; assay: Morris water maze, wild and APP mutant transgenic mice; assay type: in vivo, mouse; conditions: daily i.p. for 6 months, FIG. 6
Excerpt: The neuro- and memoryprotective effect of the compounds of invention was studied on wild and APP mutant transgenic mice. These mice express high levels of mutant beta-amyloid and, with increasing age, develop both substantial amyloid plaque load and memory deficits. Spatial memory disfunction [with the Morris water maze (MWM) behavioural task assay] and histological assays (cell density, astroglial response, tau-pathology, amyloid-histology and dendritic spine density) in the hippocampal (HC) region (key area for the memory-function) were performed.
The Morris water navigation task is a behavioral procedure widely used in behavioral neuroscience to study spatial learning and memory. The classic measure of learning is latency, which is the time it takes to find the platform after repeating the task daily.
16 adult female APP+ transgenic and 16 adult female wild type mice were the subjects of the experiment. The animals were housed in sterile mouse cages with a natural dark/light cycle, they had free access to food and water throughout the experiment. After arrival, the mice were daily gently handled for a week. […]
Spatial learning and memory were assessed in a circular pool (diameter: 130 cm, height: 60 cm), filled with water (23±1° C.) and made opaque with milk. […]
The data were recorded and evaluated automatically by using a video tracking system. […]

COC(=O)C1=C(CCN(C)C)N(C)C(CCN(C)C)=C(C(=O)OC)C1c1ccc(C(F)(F)F)cc1 [Example 23, Dimethyl 4-(4-trifuoromethylphenyl)-2,6-bis-(2-dimethylaminoethyl)-1-methyl-1,4-dihydropyridine-3,5-dicarboxylate dihydrochloride]
induction of Hsp70 gene activity (Hsp70 promoter; 20 μM, SHSY5Y cells at 42° C., FIG. 1): approximately 20 times
activity of the promoter of the hsp70 gene at 37° C. (Hsp70 promoter; SHSY5Y cells, 37° C., no heat stress): does not affect the activity of the promoter of the hsp70 gene at 37 °C
increase in HSP70 expression (Hsp70 promoter; SHSY5Y cells, relative to cells treated at 42° C. without the compound, FIG. 2): 23 fold
effect on the expression of Hsp25 (Hsp25 promoter): no effect on the expression of Hsp25
spatial memory, time to find the hidden platform in Morris water maze [1]: enhances the ability of both the wild type and the memory deficit mutant mice to find the hidden platform

From patent US10660789B2, “1,4-dihydropyridine derivatives with HSP modulating activity” (Richter Gedeon NYRT., priority 2011, dated 2020)
